# Data reported in patent publication US12714576B2, “System and method for treatment of bone” (SHANKAR RAJESWARAN M.D. LLC, priority 2020, dated 2026).
# Values joined by “and” are separate entries in the source; they are usually repeats but may differ in a detail not shown here. Equal values may be shown once.
# System: unicameral bone cyst (UBC)
# Experiment: Retrospective evaluation of pediatric patients with UBC treated by doxycycline chemical curettage (sclerotherapy) and injection of synthetic bone graft
# Type: in vivo
# Method: Summary. Retrospective evaluation of twelve pediatric patients, ages 5-14 years, undergoing treatment for a UBC, at a single institution. All UBCs were treated in a single, minimally invasive, image guided procedure using percutaneous needle access into the UBC followed by chemical curettage (a form of sclerotherapy) and injection of regenerative synthetic graft. Patients were followed clinically, and with serial radiographs, to evaluate for healing and complications. Mean time to return to full activity was 2.2 months post procedure, with a mean clinical follow-up time of 9.2 months.
# Methods. Fifteen patients were initially enrolled in this IRB approved study from August 2018 through May 2020. The diagnosis of UBC was made via radiographs and/or magnetic resonance imaging (MRI).
# Combination sclerotherapy and graft injection with CaSO4—CaPO4 was performed in a single setting as an outpatient procedure with an average procedure time of 45 minutes (range 30-60 minutes). Mean volume of doxycycline instilled during cyst sclerotherapy was 52 mL (20 mg/ml and a range 20-100 mL). Mean volume of CaSO4—CaPO4 synthetic graft material administered was 28 mL (range 4-90 mL).
# Patients were followed clinically for a minimum of three months post procedure, with radiographs performed at follow-up visits. One patient was excluded as they had imaging consistent with a fractured UBC that had subsequently rehealed into multiple cysts, and 2 other patients were excluded secondary to follow up of less than 3 months.
# Assessment of treatment response was evaluated using the Modified Neer Classification of Radiographic Healing, as shown above in Table 1. All radiographs were evaluated by four attending pediatric radiologists.
# Procedure Technique. All procedures were performed under general anesthesia. For each procedure, the cyst was localized under fluoroscopy, and the upper and lower margins of the cyst were marked on the skin. Ultrasound mapping of the area of concern was performed to identify critical structures such as arteries or nerves. However, the cyst itself could often be visualized sonographically due to associated cortical thinning.
# A 5 mm incision was made at each cyst margin as marked on the skin, and an 11-gauge or 14-gauge “treatment” needle was advanced into the cyst percutaneously. Choice of needle gauge was determined by cyst size and the expected amount of synthetic graft to be administered, with 11-gauge needles used in larger cysts. A second 5 mm incision was made along the remaining marked margin of the lesion, and a 14-gauge or 16-gauge “venting” needle was placed.
# Next, Omnipaque-180 (GE Healthcare), a water-soluble iodinated contrast, was diluted with sterile saline in a 1:1 ratio and was injected via the treatment needle during fluoroscopic visualization, taking care to ensure fluid egress via the venting needle. Contrast injection was performed to confirm a cystic nature of the UBC, to ensure adequate diffusion of the injected contrast throughout the cystic cavity, as well as to assess the presence of unexpected significant vascular outflow. Occasionally, an incomplete septation within the cyst was encountered, likely secondary healing change related to a prior pathologic fracture or prior treatment.
# Doxycycline (20 mg/mL), in a volume to match the cyst volume, was injected through the treatment needle and aspirated through the venting needle in a push-pull fashion, irrigating the cyst for one minute. The doxycycline was allowed to dwell for another nine minutes. A second round of sclerosant irrigation was then performed using similar technique and fresh doxycycline solution; thus, the total duration of doxycycline sclerotherapy was 20 minutes.
# Utilizing the cyst volume determined during initial contrast injection, a similar volume of synthetic bone graft material was prepared and injected through the treatment needle during live fluoroscopy. […]
structure (smiles),measurement,setting,value
C[C@H]1c2cccc(O)c2C(=O)C2=C(O)[C@]3(O)C(=O)C(C(N)=O)=C(O)[C@@H](N(C)C)[C@@H]3[C@@H](O)[C@@H]21 [doxycycline],Patients with healing of the UBC (Modified Neer class 1),"10 of 12 patients, most recent follow-up radiographs",83%
same,Patients showing healed cysts (Modified Neer classes 1 or 2),"11 of 12 patients, most recent follow-up",91.7%
same,Adverse events related to the procedures,12 patients,no adverse events related to the procedures
same,Perioperative complications,12 patients,No perioperative complications were observed
same,Return to Activities (mo),"one line per patient (patients 1-12), doxycycline 20 mg/mL sclerotherapy followed by CaSO4-CaPO4 synthetic graft (PRO-DENSE)",1.0 mo and 0.8 mo and 1.9 mo and 2.1 mo and 1.3 mo and 1.6 mo (2×) and 1.2 mo and 3.1 mo and 4.8 mo and 2.8 mo and 3.7 mo
same,Patients with healing with a small defect (Modified Neer class 2),"one of 12 patients, most recent follow-up radiographs",8%
